These results are taken from US20060069123A1, “Substituted dipiperidine CCR2 antagonists” (priority 2004, published 2006).

Assay [1] relates to THP-1 cells. Briefly: MCP-1 Induced Chemotaxis in THP-1 Cells. To be noted: Homo sapiens; THP-1 cells, MCP-1 0.01 μg/mL, 3 hours; read-out: Inhibition of MCP-1 Induced Chemotaxis IC50. The class given is cell-based. As to the method:
MCP-1 Induced Chemotaxis in THP-1 Cells
MCP-1 induced chemotaxis was run in a 24-well chemotaxis chamber. MCP-1 (0.01 μg/mL) was added to the lower chamber and 100 μL of THP-1 cells (1×10^7 cell/mL) was added to the top chamber. Varying concentrations of test compound were added to the top and bottom chambers. Cells were allowed to chemotax for 3 hours at 37° C. and 5% CO2. An aliquot of the cells that had migrated to the bottom chamber was taken and counted then compared to vehicle.

Assay [2] deals with T1, CCR2 (Homo sapiens, UniProt P41597).
T1 sequence (P41597 1-360 isoform P41597-2): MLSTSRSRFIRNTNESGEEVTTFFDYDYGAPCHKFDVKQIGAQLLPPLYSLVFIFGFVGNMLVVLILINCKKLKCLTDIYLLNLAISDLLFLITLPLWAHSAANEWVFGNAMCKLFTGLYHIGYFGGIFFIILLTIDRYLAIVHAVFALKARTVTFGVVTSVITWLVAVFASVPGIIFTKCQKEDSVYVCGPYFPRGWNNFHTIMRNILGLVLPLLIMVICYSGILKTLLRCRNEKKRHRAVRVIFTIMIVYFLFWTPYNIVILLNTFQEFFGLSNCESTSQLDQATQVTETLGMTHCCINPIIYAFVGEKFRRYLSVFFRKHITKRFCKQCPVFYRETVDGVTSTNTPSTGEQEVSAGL

pIC50: −log10 of the molar value.

Usually pIC50 stands for −log10 of the IC50, conventionally taken in molar units. On to `O=C(O)C(C1CCN(C(=O)/C=C/c2ccc(F)c(Br)c2)CC1)N1CCC(c2c[nH]c3ccccc23)CC1` (centres unmarked) [Cpd 36, {1-[(2E)-3-(3-bromo-4-fluoro-phenyl)-acryloyl]-piperidin-4-yl}-[4-(1H-indol-3-yl)-piperidin-1-yl]-acetic acid], for which the figures for the pIC50 in assay [1] and in assay [2] were 9.40 and 8.10, respectively.
Consider `COc1ccc2c(C3CCN(C(C(=O)O)C4CCN(C(=O)/C=C/c5cc(F)cc(F)c5)CC4)CC3)c[nH]c2c1` (centres unmarked) [Cpd 38, {1-[(2E)-3-(3,5-difluoro-phenyl)-acryloyl]-piperidin-4-yl}-[4-(6-methoxy-1H-indol-3-yl)-piperidin-1-yl]-acetic acid], for which the negative-log IC50 (pIC50) was 8.40 in assay [1] and 7.70 in assay [2].
Take `O=C(O)C(C1CCN(C(=O)/C=C/c2ccc(Cl)c(Cl)c2)CC1)N1CCC(c2c[nH]c3cc(F)ccc23)CC1` (centres unmarked) [Cpd 39, {1-[(2E)-3-(3,4-dichloro-phenyl)-acryloyl]-piperidin-4-yl}-[4-(6-fluoro-1H-indol-3-yl)-piperidin-1-yl]-acetic acid]: the pIC50 was 8.72 in assay [1] and 8.70 in assay [2].
Turning to `COc1cccc2[nH]cc(C3CCN(C(C(=O)O)C4CCN(C(=O)/C=C/c5cc(F)cc(F)c5)CC4)CC3)c12` (centres unmarked) [Cpd 41, {1-[(2E)-3-(3,5-difluoro-phenyl)-acryloyl]-piperidin-4-yl}-[4-(4-methoxy-1H-indol-3-yl)-piperidin-1-yl]-acetic acid], the negative logarithm of the IC50 (pIC50) in assay [1] was 7.40; in assay [2], 7.85.
`O=C(O)C(C1CCN(C(=O)/C=C/c2ccc(Cl)c(Cl)c2)CC1)N1CCC(c2c[nH]c3cc(Cl)ccc23)CC1` (centres unmarked) [Cpd 46, [4-(6-chloro-1H-indol-3-yl)-piperidin-1-yl]-{1-[(2E)-3-(3,4-dichloro-phenyl)-acryloyl]-piperidin-4-yl}-acetic acid]: the figures for the negative logarithm of the IC50 (pIC50) in assay [1] and in assay [2] were 9.70 and 9.00, respectively.
For `COc1ccc2[nH]cc(C3CCN(C(C(=O)O)C4CCN(C(=O)/C=C/c5ccc(Cl)c(Cl)c5)CC4)CC3)c2c1` (centres unmarked) [Cpd 47, {1-[(2E)-3-(3,4-dichloro-phenyl)-acryloyl]-piperidin-4-yl}-[4-(5-methoxy-1H-indol-3-yl)-piperidin-1-yl]-acetic acid], the negative logarithm of the IC50 (pIC50) in assay [1] was 9.70; in assay [2], 8.00.
As for `O=C(O)C(C1CCN(C(=O)Nc2ccc(F)c(Cl)c2)CC1)N1CCC(c2c[nH]c3ccccc23)CC1` (centres unmarked) [Cpd 48, [1-(3-chloro-4-fluoro-phenylcarbamoyl)-piperidin-4-yl]-[4-(1H-indol-3-yl)-piperidin-1-yl]-acetic acid], the pIC50 in assay [1] is 7.40; in assay [2] it was 7.52.
`Cc1ccc(NC(=O)N2CCC(C(C(=O)O)N3CCC(c4c[nH]c5ccccc45)CC3)CC2)cc1Cl` (centres unmarked) [Cpd 49, [1-(3-chloro-4-methyl-phenylcarbamoyl)-piperidin-4-yl]-[4-(1H-indol-3-yl)-piperidin-1-yl]-acetic acid]: the negative logarithm of the IC50 (pIC50) in assay [1] was 8.40; in assay [2] it was 7.60.
`O=C(O)C(C1CCN(C(=O)Nc2ccc(Cl)c(C(F)(F)F)c2)CC1)N1CCC(c2c[nH]c3ccccc23)CC1` (centres unmarked) [Cpd 57, [1-(4-chloro-3-trifluoromethyl-phenylcarbamoyl)-piperidin-4-yl]-[4-(1H-indol-3-yl)-piperidin-1-yl]-acetic acid]: the results for the pIC50 in assay [1] and in assay [2] were 8.52 and 7.70, respectively.
`O=C(O)C(C1CCN(C(=O)Nc2ccc(F)c(C(F)(F)F)c2)CC1)N1CCC(c2c[nH]c3ccccc23)CC1` (centres unmarked) [Cpd 58, [1-(4-fluoro-3-trifluoromethyl-phenylcarbamoyl)-piperidin-4-yl]-[4-(1H-indol-3-yl)-piperidin-1-yl]-acetic acid]: the negative-log IC50 (pIC50) is 6.89 in assay [1] and 7.05 in assay [2].
For `Cc1cccc(/C=C/C(=O)N2CCC(C(C(=O)O)N3CCC(c4c[nH]c5ccccc45)CC3)CC2)c1` (centres unmarked) [Cpd 70, [4-(1H-indol-3-yl)-piperidin-1-yl]-{1-[(2E)-3-m-tolyl-acryloyl]-piperidin-4-yl}-acetic acid], the negative logarithm of the IC50 (pIC50) in assay [1] was 7.70; in assay [2], 8.52.
Turning to `O=C(O)C(C1CCN(C(=O)/C=C/c2cccc(Br)c2)CC1)N1CCC(c2c[nH]c3ccccc23)CC1` (centres unmarked) [Cpd 71, {1-[(2E)-3-(3-bromo-phenyl)-acryloyl]-piperidin-4-yl}-[4-(1H-indol-3-yl)-piperidin-1-yl]-acetic acid], the negative logarithm of the IC50 (pIC50) was 8.15 in assay [1] and 7.70 in assay [2].
As for `Cc1ccc(/C=C/C(=O)N2CCC(C(C(=O)O)N3CCC(c4c[nH]c5ccccc45)CC3)CC2)cc1F` (centres unmarked) [Cpd 74, {1-[(2E)-3-(3-fluoro-4-methyl-phenyl)-acryloyl]-piperidin-4-yl}-[4-(1H-indol-3-yl)-piperidin-1-yl]-acetic acid], the values for the pIC50 in assay [1] and in assay [2] were 8.22 and 8.30, respectively.
On to `O=C(O)C(C1CCN(C(=O)/C=C/c2ccc(C(F)(F)F)c(F)c2)CC1)N1CCC(c2c[nH]c3ccccc23)CC1` (centres unmarked) [Cpd 75, {1-[(2E)-3-(3-fluoro-4-trifluoromethyl-phenyl)-acryloyl]-piperidin-4-yl}-[4-(1H-indol-3-yl)-piperidin-1-yl]-acetic acid], for which the results for the pIC50 in assay [1] and in assay [2] were 8.05 and 8.40, respectively.
Turning to `O=C(O)C(C1CCN(C(=O)/C=C/c2ccc(F)c(Cl)c2)CC1)N1CCC(c2c[nH]c3ccccc23)CC1` (centres unmarked) [Cpd 76, {1-[(2E)-3-(3-chloro-4-fluoro-phenyl)-acryloyl]-piperidin-4-yl}-[4-(1H-indol-3-yl)-piperidin-1-yl]-acetic acid], the pIC50 in assay [1] was 8.00; in assay [2] it was 8.70.
`O=C(O)C(C1CCN(C(=O)/C=C/c2ccc(F)cc2)CC1)N1CCC(c2c[nH]c3ccccc23)CC1` (centres unmarked) [Cpd 77, {1-[(2E)-3-(4-fluoro-phenyl)-acryloyl]-piperidin-4-yl}-[4-(1H-indol-3-yl)-piperidin-1-yl]-acetic acid]: the negative-log IC50 (pIC50) is 7.22 in assay [1] and 7.15 in assay [2].
Consider `CC(C)(C)OC(=O)Nc1ccc2[nH]cc(C3CCN(C(C(=O)O)C4CCN(C(=O)/C=C/c5cc(F)c(F)c(F)c5)CC4)CC3)c2c1` (centres unmarked) [Cpd 81], for which the negative-log IC50 (pIC50) in assay [1] and in assay [2] was 7.52 in each case.
Turning to `O=C(O)C(C1CCN(C(=O)Nc2cccc(Br)c2)CC1)N1CCC(c2c[nH]c3ccccc23)CC1` (centres unmarked) [Cpd 85, [1-(3-bromo-phenylcarbamoyl)-piperidin-4-yl]-[4-(1H-indol-3-yl)-piperidin-1-yl]-acetic acid], the pIC50 in assay [1] is 6.72; in assay [2], 6.77.
For `O=C(O)C(C1CCN(C(=O)Nc2cccc(Cl)c2)CC1)N1CCC(c2c[nH]c3ccccc23)CC1` (centres unmarked) [Cpd 86, [1-(3-chloro-phenylcarbamoyl)-piperidin-4-yl]-[4-(1H-indol-3-yl)-piperidin-1-yl]-acetic acid], in that order: 6.55 and 6.68.
As for `O=C(O)C(C1CCN(C(=O)/C=C/c2cccc([N+](=O)[O-])c2)CC1)N1CCC(c2c[nH]c3ccccc23)CC1` (centres unmarked) [Cpd 92, [4-(1H-indol-3-yl)-piperidin-1-yl]-{1-[(2E)-3-(3-nitro-phenyl)-acryloyl]-piperidin-4-yl}-acetic acid], the figures for the pIC50 in assay [1] and in assay [2] were 7.00 and 7.40, respectively.
As to `O=C(O)C(C1CCN(C(=O)/C=C/c2cccc(Cl)c2)CC1)N1CCC(c2c[nH]c3ccccc23)CC1` (centres unmarked) [Cpd 93, {1-[(2E)-3-(3-chloro-phenyl)-acryloyl]-piperidin-4-yl}-[4-(1H-indol-3-yl)-piperidin-1-yl]-acetic acid], the values for the pIC50 in assay [1] and in assay [2] were 7.70 and 8.40, respectively.
With `COc1ccc2[nH]cc(C3CCN(C(C(=O)O)C4CCN(C(=O)Nc5ccc(Cl)c(Cl)c5)CC4)CC3)c2c1` (centres unmarked) [Cpd 94, [1-(3,4-dichloro-phenylcarbamoyl)-piperidin-4-yl]-[4-(5-methoxy-1H-indol-3-yl)-piperidin-1-yl]-acetic acid], the pIC50 in assay [1] and in assay [2] was 8.00 in each case.
For `COc1ccc2c(C3CCN(C(C(=O)O)C4CCN(C(=O)Nc5ccc(Cl)c(Cl)c5)CC4)CC3)c[nH]c2c1` (centres unmarked) [Cpd 95, [1-(3,4-dichloro-phenylcarbamoyl)-piperidin-4-yl]-[4-(6-methoxy-1H-indol-3-yl)-piperidin-1-yl]-acetic acid], the negative-log IC50 (pIC50) in assay [1] and in assay [2] was 7.70 in each case.
In the case of `O=C(O)C(C1CCN(C(=O)/C=C/c2cc(F)c(F)c(F)c2)CC1)N1CCC(c2c[nH]c3ncccc23)CC1` (centres unmarked) [Cpd 151, [4-(1H-pyrrolo[2,3-b]pyridin-3-yl)-piperidin-1-yl]-{1-[(2E)-3-(3,4,5-trifluoro-phenyl)-acryloyl]-piperidin-4-yl}-acetic acid], the results for the pIC50 in assay [1] and in assay [2] were 7.52 and 8.00, respectively.
For `O=C(/C=C/c1cc(F)cc(F)c1)N1CCC(C(CO)N2CCC(c3nc4ccccc4[nH]3)CC2)CC1` (centres unmarked) [Cpd 174, (2E)-1-(4-{1-[4-(1H-benzoimidazol-2-yl)-piperidin-1-yl]-2-hydroxy-ethyl}-piperidin-1-yl)-3-(3,5-difluoro-phenyl)-propenone], in that order: 6.35 and 6.82.
